According to US20100331348A1, “TROPANE DERIVATIVES USEFUL AS PESTICIDES” (SYNGENTA CROP PROTECTION, INC., priority 2007, published 2010):
Like-named read-outs stand apart in the source and are kept apart here.

Tests used:
[1] = test system: Erysiphe graminis f.sp. tritici; assay: Erysiphe graminis f.sp. tritici (wheat powdery mildew) leaf disk assay; type: in vivo; details: Blumeria graminis, foliar, 96 h, preventive, four days after inoculation, read-out: control of fungal infection, Erysiphe graminis fsp. tritici
[2] = test system: Puccinia recondita f.sp. tritici; assay: Puccinia recondita f.sp. tritici (wheat brown rust) leaf disk assay; type: in vivo; details: foliar, 216 h, preventive, nine days after inoculation, read-out: control of fungal infection, Puccinia recondita f.sp. tritici
Pyricularia oryzae = assay: whole plant or invertebrate; type: in vivo; details: foliar, 96 h
Aedes aegypti = Aedes aegypti (Yellow fever mosquito) larvae test; type: in vivo; details: 48 h
Plutella xylostella = Plutella xylostella (Diamond back moth) artificial diet test; details: 120 h, read-out: control of Plutella xylostella
[3] = read-out: control of fungal infection, Pyricularia oryzae (at least 80% list)
[4] = read-out: control of fungal infection, Pyricularia oryzae (at least 60% list)

SMILES	pest or weed control at 200 ppm [1] [%]	pest or weed control at 200 ppm [2] [%]	pest or weed control at 200 ppm (Pyricularia oryzae; [4]) [%]	further results
FC(F)(F)Sc1cccc(CON=C2CC3CCC(C2)N3c2ncnc3sccc23)c1 [Example 5.239]	≥ 80	≥ 80		pest or weed control at 200 ppm (Pyricularia oryzae; [3]): ≥ 80%
CCc1ncnc(N2C3CCC2CC(CC(=O)Nc2ccc(Cl)cc2)C3)c1Cl (stereo not shown) [Example 7.22]		≥ 80	≥ 60	pest or weed control at 200 ppm (Pyricularia oryzae; [3]): ≥ 80%
c1ccc(CNC2C[C@H]3CC[C@@H](C2)N3c2ncnc3sccc23)cc1 (stereo partly shown) [Example 4.10]				pest or weed control at 200 ppm (Pyricularia oryzae; [3]): ≥ 80%
Cc1ccc(OC2C[C@H]3CC[C@@H](C2)N3c2ncnc3sccc23)cc1 (stereo partly shown) [Example 1.7]		≥ 80		pest or weed control at 2 ppm (Aedes aegypti): ≥ 80%
CCc1ncnc(C(C)c2ncnc(N3C4CCC3CC(=NOc3ncc(C(F)(F)F)cc3Cl)C4)c2Cl)c1Cl (stereo not shown) [Example 5.124]			≥ 60	
CCc1ncnc(N2[C@@H]3CC[C@H]2CC(Oc2ccc(C(C)C)cc2)C3)c1Cl (stereo partly shown) [Example 2.143]				pest or weed control at 200 ppm (Plutella xylostella): ≥ 80%
CCc1ncnc(N2[C@@H]3CC[C@H]2CC(Oc2c(F)c(F)c(F)c(F)c2F)C3)c1Cl (stereo partly shown) [Example 2.150]				pest or weed control at 2 ppm (Aedes aegypti): ≥ 80%
Cc1csc2c(N3[C@@H]4CC[C@H]3CC(Oc3ccc(C(F)(F)F)cn3)C4)ncnc12 (stereo partly shown) [Example 2.81]			≥ 60	
O=C(c1ccccc1)c1ccc(OC2C[C@H]3CC[C@@H](C2)N3c2ncnc3sccc23)cc1 (stereo partly shown) [Example 2.39]			≥ 60	
FC(F)(F)c1ccnc(OC2C[C@H]3CC[C@@H](C2)N3c2ncnc3ccccc23)c1 (stereo partly shown) [Example 2.84]	≥ 80	≥ 80	≥ 60	
CCCCNC1C[C@H]2CC[C@@H](C1)N2c1ncnc2sccc12 (stereo partly shown) [Example 4.9]				pest or weed control at 200 ppm (Pyricularia oryzae; [3]): ≥ 80%
FC(F)(F)c1ccnc(OC2C[C@H]3CC[C@@H](C2)N3c2ccnc3c(Cl)cccc23)c1 (stereo partly shown) [Example 2.195]			≥ 60	
CCc1ncnc(N2C3CCC2CC(=NOCc2ccccc2C#N)C3)c1Cl [Example 5.38]	≥ 80	≥ 80	≥ 60	pest or weed control at 2 ppm (Aedes aegypti): ≥ 80%
CCc1ncnc(N2C3CCC2CC(=NOCc2cc(F)cc(F)c2)C3)c1Cl [Example 5.57]	≥ 80	≥ 80		pest or weed control at 200 ppm (Pyricularia oryzae; [3]): ≥ 80%
FC(F)(F)C(F)(F)c1csc(CC2CC3CCC(C2)N3c2ncnc3sccc23)n1 (stereo not shown) [Example 7.20]		≥ 80	≥ 60	
c1cc(CON=C2CC3CCC(C2)N3c2ncnc3sccc23)ccn1 [Example 5.131]	≥ 80			pest or weed control at 2 ppm (Aedes aegypti): ≥ 80%
Cc1ccc(C)c(CON=C2CC3CCC(C2)N3c2ncnc3sccc23)c1 [Example 5.203]	≥ 80	≥ 80	≥ 60	
Cn1cc(C(=O)N2[C@@H]3CC[C@H]2CC(Oc2cccc(C(F)(F)F)n2)C3)c(C(F)(F)F)c1 (stereo partly shown) [Example 2.221]			≥ 60	
c1ccc(Oc2cccc(CON=C3CC4CCC(C3)N4c3ncnc4sccc34)c2)cc1 [Example 5.173]	≥ 80	≥ 80	≥ 60	pest or weed control at 200 ppm (Pyricularia oryzae; [3]): ≥ 80%

SMILES	pest or weed control at 200 ppm [1] [%]	pest or weed control at 200 ppm [2] [%]	pest or weed control at 200 ppm (Pyricularia oryzae; [4]) [%]	further results
CCc1ncnc(N2C3CCC2CC(=NOCc2c(F)cccc2Cl)C3)c1Cl [Example 5.90]	≥ 80	≥ 80		pest or weed control at 2 ppm (Aedes aegypti): ≥ 80%
COC(=O)C=C1CC2CCC(C1)N2c1ncnc2sccc12 [Example 3.28]		≥ 80		pest or weed control at 2 ppm (Aedes aegypti): ≥ 80%; pest or weed control at 200 ppm (Pyricularia oryzae; [3]): ≥ 80%
c1nc(N2[C@@H]3CC[C@H]2CC(Oc2ccc4c(c2)OCO4)C3)c2ccsc2n1 (stereo partly shown) [Example 2.29]	≥ 80			pest or weed control at 2 ppm (Aedes aegypti): ≥ 80%
CCc1ncnc(N2C3CCC2CC(=CC(=O)Nc2ccc(Cl)cc2)C3)c1Cl [Example 3.11]		≥ 80	≥ 60	
Cc1nn(C)c2nccc(N3[C@@H]4CC[C@H]3CC(Oc3ccc(Oc5ccc(C(F)(F)F)cn5)cc3)C4)c12 (stereo partly shown) [Example 2.160]			≥ 60	
COc1cc(OCC=C2CC3CCC(C2)N3c2ncnc3sccc23)ccc1Cl [Example 3.24]		≥ 80		pest or weed control at 200 ppm (Pyricularia oryzae; [3]): ≥ 80%
Fc1ccc(OC2C[C@H]3CC[C@@H](C2)N3c2ncnc3sccc23)cc1F (stereo partly shown) [Example 2.18]			≥ 60	
Cc1nn(C)c2nccc(N3[C@@H]4CC[C@H]3CC(Oc3ccc(Cl)cc3)C4)c12 (stereo partly shown) [Example 1.138]			≥ 60	
Fc1cccc(CON=C2CC3CCC(C2)N3c2ncnc3sccc23)c1 [Example 5.183]	≥ 80	≥ 80		pest or weed control at 2 ppm (Aedes aegypti): ≥ 80%
FC(F)Oc1ccccc1CON=C1CC2CCC(C1)N2c1ncnc2sccc12 [Example 5.202]	≥ 80	≥ 80	≥ 60	pest or weed control at 2 ppm (Aedes aegypti): ≥ 80%
Clc1cc(Br)ccc1OC1C[C@H]2CC[C@@H](C1)N2c1ncnc2sccc12 (stereo partly shown) [Example 1.28]			≥ 60	
Cc1nn(C)c2nccc(N3C4CCC3CC(=NOCc3ccc(Cl)cc3)C4)c12 [Example 5.256]	≥ 80	≥ 80	≥ 60	
FC(F)(F)c1cccc(OC2C[C@H]3CC[C@@H](C2)N3c2ncnc3sccc23)n1 (stereo partly shown) [Example 2.60]	≥ 80	≥ 80	≥ 60	
CCc1ncnc(N2C3CCC2CC(=NOCc2cccnc2)C3)c1Cl [Example 5.25]	≥ 80			pest or weed control at 2 ppm (Aedes aegypti): ≥ 80%
OC1(Cc2ccccc2)CC2CCC(C1)N2c1ncnc2sccc12 (stereo not shown) [Example 7.14]				pest or weed control at 200 ppm (Pyricularia oryzae; [3]): ≥ 80%
FC(F)(F)Oc1cccc(CON=C2CC3CCC(C2)N3c2ncnc3sccc23)c1 [Example 5.212]	≥ 80	≥ 80	≥ 60	
Fc1ccc(OC2C[C@H]3CC[C@@H](C2)N3c2ncnc3sccc23)cc1C(F)(F)F (stereo partly shown) [Example 2.52]			≥ 60	
Cc1cc(C)cc(CON=C2CC3CCC(C2)N3c2ncnc3sccc23)c1 [Example 5.156]	≥ 80	≥ 80	≥ 60	
Clc1cccc(Cl)c1CON=C1CC2CCC(C1)N2c1ncnc2sccc12 [Example 5.144]	≥ 80	≥ 80		pest or weed control at 2 ppm (Aedes aegypti): ≥ 80%; pest or weed control at 200 ppm (Pyricularia oryzae; [3]): ≥ 80%

SMILES	pest or weed control at 200 ppm [1] [%]	pest or weed control at 200 ppm [2] [%]	pest or weed control at 200 ppm (Pyricularia oryzae; [4]) [%]	further results
CCCCOCON=C1CC2CCC(C1)N2c1ncnc2sccc12 [Example 5.178]	≥ 80	≥ 80	≥ 60	
CC(C)(C)c1csc(CC2CC3CCC(C2)N3c2ncnc3sccc23)n1 (stereo not shown) [Example 7.17]			≥ 60	pest or weed control at 200 ppm (Pyricularia oryzae; [3]): ≥ 80%
CCc1ncnc(N2[C@@H]3CC[C@H]2CC(Oc2ccc4c(c2)OCO4)C3)c1Cl (stereo partly shown) [Example 2.138]				pest or weed control at 2 ppm (Aedes aegypti): ≥ 80%
Fc1ccc(C(F)(F)F)c(CON=C2CC3CCC(C2)N3c2ncnc3sccc23)c1 [Example 5.234]	≥ 80	≥ 80		pest or weed control at 200 ppm (Pyricularia oryzae; [3]): ≥ 80%
Cc1nc(ON=C2CC3CCC(C2)N3c2ncnc3sccc23)cc(-c2ccccc2)n1 [Example 5.236]			≥ 60	
CCc1ncnc(N2C3CCC2CC(=NOCc2cc(C)ccc2C)C3)c1Cl [Example 5.47]	≥ 80	≥ 80		
CCc1ncnc(N2[C@@H]3CC[C@H]2CC(Oc2ccc4sc(=O)oc4c2)C3)c1Cl (stereo partly shown) [Example 2.177]			≥ 60	
CSc1nccc(N2[C@@H]3CC[C@H]2CC(Oc2cccc(C(F)(F)F)n2)C3)n1 (stereo partly shown) [Example 2.98]			≥ 60	
CCc1ncnc(N2C3CCC2CC(=NOCc2noc(-c4ccc(C(F)(F)F)cc4)n2)C3)c1Cl [Example 5.126]	≥ 80	≥ 80		
O=c1oc2cc(OC3C[C@H]4CC[C@@H](C3)N4c3ncnc4sccc34)ccc2s1 (stereo partly shown) [Example 2.69]			≥ 60	
CCc1ncnc(N2C3CCC2CC(=NOCc2cccc(OC)c2)C3)c1Cl [Example 5.15]	≥ 80	≥ 80		pest or weed control at 2 ppm (Aedes aegypti): ≥ 80%
CCc1ncnc(N2C3CCC2CC(=NOCc2ccc(-c4ccccc4C#N)cc2)C3)c1Cl [Example 5.58]	≥ 80	≥ 80		
FC(F)(F)c1cccc(OC2C[C@H]3CC[C@@H](C2)N3c2ccncn2)n1 (stereo partly shown) [Example 2.86]	≥ 80	≥ 80		
CCc1ncnc(N2C3CCC2CC(=NOCc2ccc(-c4nnn(CC)n4)cc2)C3)c1Cl [Example 5.112]	≥ 80	≥ 80		pest or weed control at 2 ppm (Aedes aegypti): ≥ 80%
Cn1cc(C(=O)N2[C@@H]3CC[C@H]2CC(Oc2cc(C(F)(F)F)ccn2)C3)c(C(F)(F)F)c1 (stereo partly shown) [Example 2.219]			≥ 60	
CCc1ncnc(N2C3CCC2CC(=NOCc2ccc(F)c(F)c2)C3)c1Cl [Example 5.56]	≥ 80	≥ 80		
CCCNC(=O)C=C1CC2CCC(C1)N2c1ncnc2sccc12 [Example 3.31]		≥ 80		pest or weed control at 200 ppm (Pyricularia oryzae; [3]): ≥ 80%
Fc1ccc(F)c(OC2C[C@H]3CC[C@@H](C2)N3c2ncnc3sccc23)c1 (stereo partly shown) [Example 2.25]	≥ 80		≥ 60	
